Numbered stars: 1 amine (or outer) side, 2 acyl side, 3 side chain; on linkers, the order of the positions; unused ones are H or OH. Square brackets hold non-standard residues; d marks the D form. Side chains are listed from the residue outwards. Peptide text beside a SMILES is read from it. * marks the point of attachment. C18 diacid = O=C(O)CCCCCCCCCCCCCCCCC(=O)*; γGlu = O=C(O)[C@H](CCC(=O)[*:2])N[*:1]; AEEA = NCCOCCOCC(=O)O; Aib = CC(C)(N)C(=O)O
Key:
[1] = Chemical stability assessment by RP-UPLC; format: physicochemical; conditions: 333 μM, 8 mM phosphate buffer pH 7.3, 37° C. vs 5° C.
Summary of the method: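 Purity loss = (purity after 14 days at 5° C. minus that at 37° C.) relative to the 5° C. value, purity being main-peak area % by RP-UPLC with UV at 215 nm. Samples were 333 μM in 8 mM phosphate, pH 7.3; gradient adjusted for outlying retention times.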

human GLP-1 receptor = biological target: T1, human GLP-1 receptor (Homo sapiens, UniProt P43220); assay: GLP-1 receptor binding, 125I-GLP-1 displacement SPA on isolated membranes; conditions: displacement of 125I-GLP-1 from membranes; read-out: IC50 GLP-1R
T1 construct: expressed in transfected cells; host or cells: BHK cells (parent BHKTS13), clone FCW467-12A/KZ10-1, with CRE luciferase
T1 sequence (P43220 24-463): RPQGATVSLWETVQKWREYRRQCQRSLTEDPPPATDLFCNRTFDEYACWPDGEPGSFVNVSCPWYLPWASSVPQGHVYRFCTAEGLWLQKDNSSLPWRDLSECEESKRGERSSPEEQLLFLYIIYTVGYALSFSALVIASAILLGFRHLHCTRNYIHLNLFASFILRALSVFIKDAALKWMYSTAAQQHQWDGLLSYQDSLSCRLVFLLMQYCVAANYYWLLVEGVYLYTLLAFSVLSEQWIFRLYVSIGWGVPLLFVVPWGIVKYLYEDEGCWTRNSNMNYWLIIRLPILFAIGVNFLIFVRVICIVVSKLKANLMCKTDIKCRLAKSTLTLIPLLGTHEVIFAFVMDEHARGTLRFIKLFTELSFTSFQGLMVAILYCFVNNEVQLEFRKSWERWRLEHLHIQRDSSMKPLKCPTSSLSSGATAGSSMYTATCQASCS
Summary of the method: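 SPA displacement of 125I-GLP-1(7-36)NH2 from membranes of BHK cells expressing human GLP-1 receptor, with WGA beads, in 50 mM HEPES, 5 mM EGTA, 5 mM MgCl2, 0.005% Tween 20, pH 7.4. Incubated 2 h at 30°C; IC50 by non-linear regression, run at ≤0.001% or 2.0% final serum albumin.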

Purity loss; 14 days at 37° C. [1] [%] | IC50 (human GLP-1 receptor) [nM] | SMILES
4 | 0.3 | CC(C)C[C@H](NC(=O)[C@H](Cc1ccc(O)cc1)NC(=O)[C@H](CCCCN)NC(=O)[C@H](CO)NC(=O)[C@H](CC(C)C)NC(=O)[C@H](CC(=O)O)NC(=O)[C@H](CO)NC(=O)[C@@H](NC(=O)[C@H](Cc1ccccc1)NC(=O)[C@@H](NC(=O)CNC(=O)[C@H](CCC(N)=O)NC(=O)C(C)(C)NC(=O)[C@@H](N)Cc1c[nH]cn1)[C@@H](C)O)[C@@H](C)O)C(=O)N[C@@H](CC(=O)O)C(=O)N[C@@H](CO)C(=O)N[C@@H](CCCNC(=N)N)C(=O)N[C@@H](CCCNC(=N)N)C(=O)N[C@@H](C)C(=O)N[C@@H](CCCNC(=N)N)C(=O)N[C@@H](CCC(=O)O)C(=O)N[C@@H](Cc1ccccc1)C(=O)N[C@H](C(=O)N[C@@H](CCC(N)=O)C(=O)N[C@@H](Cc1c[nH]c2ccccc12)C(=O)N[C@@H](CC(C)C)C(=O)N[C@@H](CC(C)C)C(=O)N[C@@H](CCCCNC(=O)CC[C@H](NC(=O)CC[C@H](NC(=O)COCCOCCNC(=O)COCCOCCNC(=O)CC[C@H](NC(=O)CCCCCCCCCCCCCCCCC(=O)O)C(=O)O)C(=O)O)C(=O)O)C(=O)N[C@H](C(N)=O)[C@@H](C)O)C(C)C [Example 56, N^ε28-[(4S)-4-carboxy-4-[[(4S)-4-carboxy-4-[[2-[2-[2-[[2-[2-[2-[[(4S)-4-carboxy-4-(17-carboxyheptadecanoylamino)butanoyl]amino]ethoxy]ethoxy]acetyl]amino]ethoxy]ethoxy]acetyl]amino]butanoyl]amino]butanoyl]-[Aib2,Leu10,Arg20,Glu21,Leu27,Lys28]-Glucagon amide] (H-H[Aib]QGTFTSDLSKYLDSRRAREFVQWLLK([γGlu-γGlu-AEEA-AEEA-γGlu-C18 diacid])T-NH2)
4 | 0.2 | CC(C)C[C@H](NC(=O)[C@H](Cc1ccc(O)cc1)NC(=O)[C@H](CCCCN)NC(=O)[C@H](CO)NC(=O)[C@H](CC(C)C)NC(=O)[C@H](CC(=O)O)NC(=O)[C@H](CO)NC(=O)[C@@H](NC(=O)[C@H](Cc1ccccc1)NC(=O)[C@@H](NC(=O)CNC(=O)[C@H](CCC(N)=O)NC(=O)C(C)(C)NC(=O)[C@@H](N)Cc1c[nH]cn1)[C@@H](C)O)[C@@H](C)O)C(=O)N[C@@H](CCC(=O)O)C(=O)N[C@@H](CO)C(=O)N[C@@H](CCCNC(=N)N)C(=O)N[C@@H](CCCNC(=N)N)C(=O)N[C@@H](C)C(=O)N[C@@H](CCCNC(=N)N)C(=O)N[C@@H](CCC(=O)O)C(=O)N[C@@H](Cc1ccccc1)C(=O)N[C@H](C(=O)N[C@@H](CCC(N)=O)C(=O)N[C@@H](Cc1c[nH]c2ccccc12)C(=O)N[C@@H](CC(C)C)C(=O)N[C@@H](CC(C)C)C(=O)N[C@@H](CCCCNC(=O)CC[C@H](NC(=O)CC[C@H](NC(=O)COCCOCCNC(=O)COCCOCCNC(=O)CC[C@H](NC(=O)CC[C@H](NC(=O)CCCCCCCCCCCCCCCCC(=O)O)C(=O)O)C(=O)O)C(=O)O)C(=O)O)C(=O)N[C@H](C(N)=O)[C@@H](C)O)C(C)C [Example 60, N^ε28-[(4S)-4-carboxy-4-[[(4S)-4-carboxy-4-[[2-[2-[2-[[2-[2-[2-[[(4S)-4-carboxy-4-[[(4S)-4-carboxy-4-(17-carboxyheptadecanoylamino)butanoyl]amino]butanoyl]amino]ethoxy]ethoxy]acetyl]amino]ethoxy]ethoxy]acetyl]amino]butanoyl]amino]butanoyl]-[Aib2,Leu10,Glu15,Arg20,Glu21,Leu27,Lys28]-Glucagon amide] (H-H[Aib]QGTFTSDLSKYLESRRAREFVQWLLK([γGlu-γGlu-AEEA-AEEA-γGlu-γGlu-C18 diacid])T-NH2; N-terminus assumed)
3 | 0.5 | CC(C)C[C@H](NC(=O)[C@H](Cc1ccc(O)cc1)NC(=O)[C@H](CCCCN)NC(=O)[C@H](CO)NC(=O)[C@H](CC(C)C)NC(=O)[C@H](CC(=O)O)NC(=O)[C@H](CO)NC(=O)[C@@H](NC(=O)[C@H](Cc1ccccc1)NC(=O)[C@@H](NC(=O)CNC(=O)[C@H](CCC(N)=O)NC(=O)C(C)(C)NC(=O)[C@@H](N)Cc1c[nH]cn1)[C@@H](C)O)[C@@H](C)O)C(=O)N[C@@H](CC(=O)O)C(=O)N[C@@H](C)C(=O)N[C@@H](CCCNC(=N)N)C(=O)N[C@@H](CCCNC(=N)N)C(=O)N[C@@H](C)C(=O)N[C@@H](CCCNC(=N)N)C(=O)N[C@@H](CC(=O)O)C(=O)N[C@@H](Cc1ccccc1)C(=O)N[C@H](C(=O)N[C@@H](CCC(N)=O)C(=O)N[C@@H](Cc1c[nH]c2ccccc12)C(=O)N[C@@H](CC(C)C)C(=O)N[C@@H](CC(C)C)C(=O)N[C@@H](CC(N)=O)C(=O)N[C@@H](CCCCNC(=O)CC[C@H](NC(=O)CC[C@H](NC(=O)COCCOCCNC(=O)COCCOCCNC(=O)CC[C@H](NC(=O)CCCCCCCCCCCCCCCCC(=O)O)C(=O)O)C(=O)O)C(=O)O)C(N)=O)C(C)C [Example 65] (H-H[Aib]QGTFTSDLSKYLDARRARDFVQWLLNK([γGlu-γGlu-AEEA-AEEA-γGlu-C18 diacid])-NH2; N-terminus assumed)
2 | 0.6 | CC(C)C[C@H](NC(=O)[C@H](Cc1ccc(O)cc1)NC(=O)[C@H](CCCCN)NC(=O)[C@H](CO)NC(=O)[C@H](CC(C)C)NC(=O)[C@H](CC(=O)O)NC(=O)[C@H](CO)NC(=O)[C@@H](NC(=O)[C@H](Cc1ccccc1)NC(=O)[C@@H](NC(=O)CNC(=O)[C@H](CCC(N)=O)NC(=O)C(C)(C)NC(=O)[C@@H](N)Cc1c[nH]cn1)[C@@H](C)O)[C@@H](C)O)C(=O)N[C@@H](CC(=O)O)C(=O)N[C@@H](C)C(=O)N[C@@H](CCCNC(=N)N)C(=O)N[C@@H](CCCNC(=N)N)C(=O)N[C@@H](C)C(=O)N[C@@H](CCCNC(=N)N)C(=O)N[C@@H](CC(=O)O)C(=O)N[C@@H](Cc1ccccc1)C(=O)N[C@H](C(=O)N[C@@H](CCC(N)=O)C(=O)N[C@@H](Cc1c[nH]c2ccccc12)C(=O)N[C@@H](CC(C)C)C(=O)N[C@@H](CC(C)C)C(=O)N[C@@H](CO)C(=O)N[C@@H](CCCCNC(=O)CC[C@H](NC(=O)CC[C@H](NC(=O)COCCOCCNC(=O)COCCOCCNC(=O)CC[C@H](NC(=O)CCCCCCCCCCCCCCCCC(=O)O)C(=O)O)C(=O)O)C(=O)O)C(N)=O)C(C)C [Example 66, N^ε29-[(4S)-4-carboxy-4-[[(4S)-4-carboxy-4-[[2-[2-[2-[[2-[2-[2-[[(4S)-4-carboxy-4-(17-carboxyheptadecanoylamino)butanoyl]amino]ethoxy]ethoxy]acetyl]amino]ethoxy]ethoxy]acetyl]amino]butanoyl]amino]butanoyl]-[Aib2,Leu10,Ala16,Arg20,Leu27,Ser28,Lys29]-Glucagon amide] (H-H[Aib]QGTFTSDLSKYLDARRARDFVQWLLSK([γGlu-γGlu-AEEA-AEEA-γGlu-C18 diacid])-NH2; N-terminus assumed)

— patent US9474790B2, “Stable, protracted GLP-1/glucagon receptor co-agonists for medical use” (Novo Nordisk A/S, priority 2013, dated 2016)
